Source: patent publication US12077503B2, “Substituted cyclic amides and their use as herbicides” (FMC CORPORATION, priority 2015, dated 2024)

Assays:
Type in all cases: in vivo
Kochia (Kochia scoparia) [1] = experiment: Test A preemergence; settings: Bassia scoparia, pre-emergence, 240 h, preemergence, 0 to 100 scale where 0 is no effect and 100 is complete control, read-out: Kochia plant response rating; for pest or weed control at 125 g/ha: 125 g ai/ha, visual injury rating, approximately 10 d; for pest or weed control at 500 g/ha: 500 g ai/ha
Method in brief: (§1)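 Seeded soil received test chemicals as a preemergence directed spray, and seedlings at one to two leaves, 2–10 cm tall, received them postemergence, in a non-phytotoxic, surfactant-containing solvent mixture. Pots were held in a greenhouse for approximately 10 d, then rated for injury from 0, no effect, to 100, complete control.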

[2] = system: barnyardgrass (Echinochloa crus-galli); experiment: Test A preemergence; settings: Echinochloa crus-galli, pre-emergence, 240 h, preemergence, 0 to 100 scale where 0 is no effect and 100 is complete control, read-out: Barnyardgrass plant response rating; for pest or weed control at 125 g/ha: 125 g ai/ha, visual injury rating, approximately 10 d; for pest or weed control at 500 g/ha: 500 g ai/ha
Method in brief: as §1

[3] = system: pigweed (Amaranthus retroflexus); experiment: Test A preemergence; settings: Amaranthus retroflexus, pre-emergence, 240 h, preemergence, 0 to 100 scale where 0 is no effect and 100 is complete control, read-out: Pigweed plant response rating; for pest or weed control at 125 g/ha: 125 g ai/ha, visual injury rating, approximately 10 d; for pest or weed control at 500 g/ha: 500 g ai/ha
[4] = system: ragweed (common ragweed, Ambrosia elatior); experiment: Test A preemergence; settings: Ambrosia artemisiifolia, pre-emergence, 240 h, preemergence, 0 to 100 scale where 0 is no effect and 100 is complete control, read-out: Ragweed plant response rating; for pest or weed control at 125 g/ha: 125 g ai/ha, visual injury rating, approximately 10 d; for pest or weed control at 500 g/ha: 500 g ai/ha
Method in brief: as §1

[5] = system: ryegrass, Italian (Italian ryegrass, Lolium multiflorum); experiment: Test A preemergence; settings: Lolium multiflorum, pre-emergence, 240 h, preemergence, 0 to 100 scale where 0 is no effect and 100 is complete control, read-out: Ryegrass, Italian plant response rating; for pest or weed control at 125 g/ha: 125 g ai/ha, visual injury rating, approximately 10 d; for pest or weed control at 500 g/ha: 500 g ai/ha
Method in brief: as §1

[6] = system: Galium (catchweed bedstraw, Galium aparine); experiment: Test A postemergence; settings: Galium, post-emergence, 240 h, postemergence; for pest or weed control at 125 g/ha: 125 g ai/ha, visual injury vs untreated controls after approx. 10 d, 0 = no effect, 100 = complete control, read-out: Galium plant response rating (0 to 100 scale); for pest or weed control at 500 g/ha: 500 g ai/ha, 0 to 100 scale, 0 is no effect, 100 is complete control, read-out: Galium plant response rating
Method in brief: as §1

Kochia (Kochia scoparia) [7] = experiment: Test A postemergence; settings: Bassia scoparia, post-emergence, 240 h, postemergence; for pest or weed control at 125 g/ha: 125 g ai/ha, visual injury vs untreated controls after approx. 10 d, 0 = no effect, 100 = complete control, read-out: Kochia plant response rating (0 to 100 scale); for pest or weed control at 500 g/ha: 500 g ai/ha, 0 to 100 scale, 0 is no effect, 100 is complete control, read-out: Kochia plant response rating
Method in brief: as §1

[8] = system: barnyardgrass (Echinochloa crus-galli); experiment: Test A postemergence; settings: Echinochloa crus-galli, post-emergence, 240 h, postemergence; for pest or weed control at 125 g/ha: 125 g ai/ha, visual injury vs untreated controls after approx. 10 d, 0 = no effect, 100 = complete control, read-out: Barnyardgrass plant response rating (0 to 100 scale); for pest or weed control at 500 g/ha: 500 g ai/ha, 0 to 100 scale, 0 is no effect, 100 is complete control, read-out: Barnyardgrass plant response rating
Method in brief: as §1

[9] = system: blackgrass (Alopecurus myosuroides); experiment: Test A postemergence; settings: Alopecurus myosuroides, post-emergence, 240 h, postemergence; for pest or weed control at 125 g/ha: 125 g ai/ha, visual injury vs untreated controls after approx. 10 d, 0 = no effect, 100 = complete control, read-out: Blackgrass plant response rating (0 to 100 scale); for pest or weed control at 500 g/ha: 500 g ai/ha, 0 to 100 scale, 0 is no effect, 100 is complete control, read-out: Blackgrass plant response rating
Method in brief: as §1

corn (Zea mays) = experiment: Test A postemergence; settings: Zea mays, post-emergence, 240 h, postemergence; for plant injury at 125 g/ha: 125 g ai/ha, visual injury vs untreated controls after approx. 10 d, 0 = no effect, 100 = complete control, read-out: Corn plant response rating (0 to 100 scale); for plant injury at 500 g/ha: 500 g ai/ha, 0 to 100 scale, 0 is no effect, 100 is complete control, read-out: Corn plant response rating
Method in brief: as §1

[10] = system: giant foxtail (Setaria faberii); experiment: Test A postemergence; settings: Setaria faberi, post-emergence, 240 h, postemergence; for pest or weed control at 125 g/ha: 125 g ai/ha, visual injury vs untreated controls after approx. 10 d, 0 = no effect, 100 = complete control, read-out: Foxtail, Giant plant response rating (0 to 100 scale); for pest or weed control at 500 g/ha: 500 g ai/ha, 0 to 100 scale, 0 is no effect, 100 is complete control, read-out: Foxtail, Giant plant response rating
Method in brief: as §1

[11] = system: pigweed (Amaranthus retroflexus); experiment: Test A postemergence; settings: Amaranthus retroflexus, post-emergence, 240 h, postemergence; for pest or weed control at 125 g/ha: 125 g ai/ha, visual injury vs untreated controls after approx. 10 d, 0 = no effect, 100 = complete control, read-out: Pigweed plant response rating (0 to 100 scale); for pest or weed control at 500 g/ha: 500 g ai/ha, 0 to 100 scale, 0 is no effect, 100 is complete control, read-out: Pigweed plant response rating
Method in brief: as §1

[12] = system: ragweed (common ragweed, Ambrosia elatior); experiment: Test A postemergence; settings: Ambrosia artemisiifolia, post-emergence, 240 h, postemergence; for pest or weed control at 125 g/ha: 125 g ai/ha, visual injury vs untreated controls after approx. 10 d, 0 = no effect, 100 = complete control, read-out: Ragweed plant response rating (0 to 100 scale); for pest or weed control at 500 g/ha: 500 g ai/ha, 0 to 100 scale, 0 is no effect, 100 is complete control, read-out: Ragweed plant response rating
Method in brief: as §1

[13] = system: ryegrass, Italian (Italian ryegrass, Lolium multiflorum); experiment: Test A postemergence; settings: Lolium multiflorum, post-emergence, 240 h, postemergence; for pest or weed control at 125 g/ha: 125 g ai/ha, visual injury vs untreated controls after approx. 10 d, 0 = no effect, 100 = complete control, read-out: Ryegrass, Italian plant response rating (0 to 100 scale); for pest or weed control at 500 g/ha: 500 g ai/ha, 0 to 100 scale, 0 is no effect, 100 is complete control, read-out: Ryegrass, Italian plant response rating
Method in brief: as §1

[14] = system: wheat (Triticum aestivum); experiment: Test A postemergence; settings: Triticum aestivum, post-emergence, 240 h, postemergence; for plant injury at 125 g/ha: 125 g ai/ha, visual injury vs untreated controls after approx. 10 d, 0 = no effect, 100 = complete control, read-out: Wheat plant response rating (0 to 100 scale); for plant injury at 500 g/ha: 500 g ai/ha, 0 to 100 scale, 0 is no effect, 100 is complete control, read-out: Wheat plant response rating
Method in brief: as §1

Structure (SMILES) | pest or weed control at 125 g/ha (Kochia (Kochia scoparia) [1]) [%] | pest or weed control at 500 g/ha (Kochia (Kochia scoparia) [1]) [%] | pest or weed control at 125 g/ha [2] [%] | pest or weed control at 500 g/ha [2] [%] | pest or weed control at 125 g/ha [3] [%] | pest or weed control at 500 g/ha [3] [%] | pest or weed control at 125 g/ha [4] [%] | pest or weed control at 500 g/ha [4] [%] | pest or weed control at 125 g/ha [5] [%] | pest or weed control at 500 g/ha [5] [%] | pest or weed control at 125 g/ha [6] [%] | pest or weed control at 500 g/ha [6] [%] | pest or weed control at 125 g/ha (Kochia (Kochia scoparia) [7]) [%] | pest or weed control at 500 g/ha (Kochia (Kochia scoparia) [7]) [%] | pest or weed control at 125 g/ha [8] [%] | pest or weed control at 500 g/ha [8] [%] | pest or weed control at 125 g/ha [9] [%] | pest or weed control at 500 g/ha [9] [%] | plant injury at 125 g/ha (corn (Zea mays)) [%] | plant injury at 500 g/ha (corn (Zea mays)) [%] | further results
N#Cc1cc([C@H]2CNC(=O)[C@]2(O)C(=O)Nc2ccccc2F)ccc1F [Compound 1200] | 0 | 0 | 0 | 0 | 0 | 0 | 0 | 0 | 0 | 0 | 0 | 0 | 0 | 0 | 0 | 0 | 0 | 0 | 0 | 0 | pest or weed control at 125 g/ha [10]: 0%; pest or weed control at 500 g/ha [10]: 0%; pest or weed control at 125 g/ha [11]: 0%; pest or weed control at 500 g/ha [11]: 0%; pest or weed control at 125 g/ha [12]: 0%; pest or weed control at 500 g/ha [12]: 0%; pest or weed control at 125 g/ha [13]: 0%; pest or weed control at 500 g/ha [13]: 0%; plant injury at 125 g/ha [14]: 0%; plant injury at 500 g/ha [14]: 0%
CSc1ccccc1NC(=O)[C@H]1C(=O)NC[C@@H]1c1ccc(F)c(C#N)c1 [Compound 1201] | 30 | 70 | 0 | 70 | 20 | 70 | 60 | 70 | 0 | 0 | 30 | 50 | 40 | 70 | 70 | 100 | 0 | 0 | 0 | 0 | pest or weed control at 125 g/ha [10]: 70%; pest or weed control at 500 g/ha [10]: 90%; pest or weed control at 125 g/ha [11]: 20%; pest or weed control at 500 g/ha [11]: 60%; pest or weed control at 125 g/ha [12]: 0%; pest or weed control at 500 g/ha [12]: 30%; pest or weed control at 125 g/ha [13]: 0%; pest or weed control at 500 g/ha [13]: 0%; plant injury at 125 g/ha [14]: 0%; plant injury at 500 g/ha [14]: 0%
COc1cc(C(F)(F)F)ccc1[C@H]1CN(C)C(=O)[C@@H]1C(=O)Nc1cccc(F)c1C [Compound 1205] | 30 | 30 | 90 | 90 | 0 | 30 | 0 | 0 | 40 | 70 | 20 | 40 | 0 | 0 | 40 | 50 | 0 | 20 | 70 | 80 | pest or weed control at 125 g/ha [10]: 80%; pest or weed control at 500 g/ha [10]: 80%; pest or weed control at 125 g/ha [11]: 0%; pest or weed control at 500 g/ha [11]: 0%; pest or weed control at 125 g/ha [12]: 0%; pest or weed control at 500 g/ha [12]: 0%; pest or weed control at 125 g/ha [13]: 0%; pest or weed control at 500 g/ha [13]: 30%; plant injury at 125 g/ha [14]: 30%; plant injury at 500 g/ha [14]: 40%
